16 molecules from PubChem BioAssay (NCI) can be followed below.

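48-hour exposure; five concentrations; linearly interpolated endpoints. TGI is the concentration that stops growth completely.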

The first experiment concerns A549 NSCLC. Briefly: inhibition of tumour cell growth, NCI panel, 48 h.
Molecule `CC(CCC#N)(CCC#N)C(=O)CC(O)(C(F)(F)F)C(F)(F)F` registered a TGI of 30.1 µM.

`Cc1c(O)c(C)c2c(C)cn(C(=O)C(C)(C)C)c2c1C` yielded a TGI of 64.7 µM.

Molecule `COc1ccc(-c2c(C#N)c(O)n(NS(=O)(=O)c3ccc(C)cc3)c(=O)c2C#N)cc1` came in with a TGI of over 100 µM.

`O=C1C[C@H]2[C@@H](O1)[C@@H](O)CN1C(=O)c3ccccc3[C@H]21` had a TGI of over 100 µM.

Regarding `CSc1nncc2[nH]c(C)nc12`, the TGI is over 100 µM.

In turn, `COc1ccc(OC)c(N2C(=O)CSC2c2cc(OC)c(OC)c(OC)c2)c1` (stereo not given) displayed a TGI of over 100 µM.

In turn, `CCOC(=O)C1=C(N)Oc2ccc(Br)cc2C1C(C#N)C(=O)OCC` (stereo not given) showed a TGI of 70.5 µM.

Regarding `COc1ccc(-c2nc(SCC(=O)N/N=C/c3ccc(O)c(OC)c3)[nH]c2-c2ccc(OC)cc2)cc1`, the TGI is over 100 µM.

`CCOP(=O)(O)C(C)(C)NC` showed a TGI of over 100 µM.

In the case of `CC(/C=N\NC(=S)N1CCCCC1)=N/NC(=S)N1CCCCC1`, the TGI came to 18.5 µM.

`Cc1ccc(C(=O)N/N=C(\N=Nc2ccccc2[N+](=O)[O-])c2ccc(N(C)C)cc2)cc1` had a TGI of over 100 µM.

`CC1C[C@]2(C)C(=O)Nc3ccccc3[C@@H]2Nc2ccccc21` (stereo not given in full) showed a TGI of over 100 µM.

For the molecule `CC(C)(C)C(=O)OC(N)/C=C/c1ccccc1` (stereo not given), the TGI is over 100 µM.

For `O=c1c2c(-c3ccccc3)onc2n(-c2ccccc2)c(=O)n1-c1ccccc1`, the TGI is over 100 µM.

The next experiment concerns BT-549 breast. Briefly: inhibition of tumour cell growth, NCI panel, 48 h.
`COc1ccc(-c2c(C#N)c(O)n(NS(=O)(=O)c3ccc(C)cc3)c(=O)c2C#N)cc1` returned a TGI of over 100 µM.

In turn, `O=C1C[C@H]2[C@@H](O1)[C@@H](O)CN1C(=O)c3ccccc3[C@H]21` yielded a TGI of over 100 µM.

Turning to `CSc1nncc2[nH]c(C)nc12`, the TGI is over 100 µM.

In the case of `COc1ccc(OC)c(N2C(=O)CSC2c2cc(OC)c(OC)c(OC)c2)c1` (stereo not given), the TGI is over 100 µM.

In turn, `COc1ccc(-c2nc(SCC(=O)N/N=C/c3ccc(O)c(OC)c3)[nH]c2-c2ccc(OC)cc2)cc1` returned a TGI of 44.1 µM.

Regarding `CC(/C=N\NC(=S)N1CCCCC1)=N/NC(=S)N1CCCCC1`, the TGI turned out to be 13.4 µM.

Take `Cc1ccc(C(=O)N/N=C(\N=Nc2ccccc2[N+](=O)[O-])c2ccc(N(C)C)cc2)cc1`: the TGI was over 100 µM.

`CC(C)(C)C(=O)OC(N)/C=C/c1ccccc1` (stereo not given) returned a TGI of over 100 µM.

`O=c1c2c(-c3ccccc3)onc2n(-c2ccccc2)c(=O)n1-c1ccccc1`: the TGI worked out at 39.5 µM.

A further experiment deals with DU-145 prostate. Briefly: inhibition of tumour cell growth, NCI panel, 48 h.
Consider `CC(CCC#N)(CCC#N)C(=O)CC(O)(C(F)(F)F)C(F)(F)F`, for which the TGI worked out at 26.1 µM.

Regarding `Cc1c(O)c(C)c2c(C)cn(C(=O)C(C)(C)C)c2c1C`, the TGI was determined as 43.9 µM.

Take `O=C1C[C@H]2[C@@H](O1)[C@@H](O)CN1C(=O)c3ccccc3[C@H]21`: the TGI was over 100 µM.

`COc1ccc(OC)c(N2C(=O)CSC2c2cc(OC)c(OC)c(OC)c2)c1` (stereo not given) registered a TGI of over 100 µM.

For `COc1ccc(C(OC(C)=O)C2C(=C(C#N)C#N)c3ccccc3C2=C(C#N)C#N)cc1` (stereo not given), the TGI is over 100 µM.

The molecule `CCOC(=O)C1=C(N)Oc2ccc(Br)cc2C1C(C#N)C(=O)OCC` (stereo not given) had a TGI of over 100 µM.

In the case of `CC(=O)Nc1ccc(-c2nc3ccccc3s2)cc1`, the TGI came out at 40.1 µM.

For `COc1ccc(-c2nc(SCC(=O)N/N=C/c3ccc(O)c(OC)c3)[nH]c2-c2ccc(OC)cc2)cc1`, the TGI was over 100 µM.

As to `CCOP(=O)(O)C(C)(C)NC`, the TGI is over 100 µM.

Consider `CC(/C=N\NC(=S)N1CCCCC1)=N/NC(=S)N1CCCCC1`, for which the TGI came out at 4.58 µM.

`CC1C[C@]2(C)C(=O)Nc3ccccc3[C@@H]2Nc2ccccc21` (stereo not given in full) registered a TGI of over 100 µM.

The test system of the next experiment is HL-60(TB) leukemia. The experiment in a line: inhibition of tumour cell growth, NCI panel, 48 h.
`CC(CCC#N)(CCC#N)C(=O)CC(O)(C(F)(F)F)C(F)(F)F` yielded a TGI of 3.99 µM.

Consider `Cc1c(O)c(C)c2c(C)cn(C(=O)C(C)(C)C)c2c1C`, for which the TGI is over 100 µM.

In turn, `COc1ccc(-c2c(C#N)c(O)n(NS(=O)(=O)c3ccc(C)cc3)c(=O)c2C#N)cc1` yielded a TGI of over 100 µM.

`CSc1nncc2[nH]c(C)nc12` returned a TGI of over 100 µM.

As to `COc1ccc(OC)c(N2C(=O)CSC2c2cc(OC)c(OC)c(OC)c2)c1` (stereo not given), the TGI is over 100 µM.

Regarding `COc1ccc(C(OC(C)=O)C2C(=C(C#N)C#N)c3ccccc3C2=C(C#N)C#N)cc1` (stereo not given), the TGI was determined as 41.9 µM.

As to `CCOC(=O)C1=C(N)Oc2ccc(Br)cc2C1C(C#N)C(=O)OCC` (stereo not given), the TGI is over 100 µM.

`CC(=O)Nc1ccc(-c2nc3ccccc3s2)cc1` yielded a TGI of over 100 µM.

`COc1ccc(-c2nc(SCC(=O)N/N=C/c3ccc(O)c(OC)c3)[nH]c2-c2ccc(OC)cc2)cc1` registered a TGI of 32.4 µM.

Molecule `CCOP(=O)(O)C(C)(C)NC` registered a TGI of over 100 µM.

`Cc1ccc(C(=O)N/N=C(\N=Nc2ccccc2[N+](=O)[O-])c2ccc(N(C)C)cc2)cc1` yielded a TGI of over 100 µM.

For `CC1C[C@]2(C)C(=O)Nc3ccccc3[C@@H]2Nc2ccccc21` (stereo not given in full), the TGI was 61 µM.

Molecule `CC(C)(C)C(=O)OC(N)/C=C/c1ccccc1` (stereo not given) showed a TGI of over 100 µM.

The subject of the next experiment is HS 578T breast. The experiment in a line: inhibition of tumour cell growth, NCI panel, 48 h.
`CC(CCC#N)(CCC#N)C(=O)CC(O)(C(F)(F)F)C(F)(F)F`: the TGI is 60.6 µM.

Molecule `Cc1c(O)c(C)c2c(C)cn(C(=O)C(C)(C)C)c2c1C` returned a TGI of 77.2 µM.

`COc1ccc(-c2c(C#N)c(O)n(NS(=O)(=O)c3ccc(C)cc3)c(=O)c2C#N)cc1` had a TGI of over 100 µM.

As for `COc1ccc(OC)c(N2C(=O)CSC2c2cc(OC)c(OC)c(OC)c2)c1` (stereo not given), the TGI was over 100 µM.

As to `COc1ccc(C(OC(C)=O)C2C(=C(C#N)C#N)c3ccccc3C2=C(C#N)C#N)cc1` (stereo not given), the TGI amounted to 91.6 µM.

Molecule `CCOC(=O)C1=C(N)Oc2ccc(Br)cc2C1C(C#N)C(=O)OCC` (stereo not given) yielded a TGI of 61 µM.

For `CC(=O)Nc1ccc(-c2nc3ccccc3s2)cc1`, the TGI is over 100 µM.

The molecule `CCOP(=O)(O)C(C)(C)NC` showed a TGI of over 100 µM.

Turning to `CC(/C=N\NC(=S)N1CCCCC1)=N/NC(=S)N1CCCCC1`, the TGI stood at 14.7 µM.

`Cc1ccc(C(=O)N/N=C(\N=Nc2ccccc2[N+](=O)[O-])c2ccc(N(C)C)cc2)cc1`: the TGI is over 100 µM.

The molecule `CC1C[C@]2(C)C(=O)Nc3ccccc3[C@@H]2Nc2ccccc21` (stereo not given in full) returned a TGI of 72.9 µM.

With `CC(C)(C)C(=O)OC(N)/C=C/c1ccccc1` (stereo not given), the TGI is over 100 µM.

As for `O=c1c2c(-c3ccccc3)onc2n(-c2ccccc2)c(=O)n1-c1ccccc1`, the TGI stood at 89.8 µM.

A further experiment concerns IGROV1 ovarian. Briefly: inhibition of tumour cell growth, NCI panel, 48 h.
Take `CC(CCC#N)(CCC#N)C(=O)CC(O)(C(F)(F)F)C(F)(F)F`: the TGI was 29.3 µM.

With `Cc1c(O)c(C)c2c(C)cn(C(=O)C(C)(C)C)c2c1C`, the TGI came to 42.2 µM.

With `COc1ccc(-c2c(C#N)c(O)n(NS(=O)(=O)c3ccc(C)cc3)c(=O)c2C#N)cc1`, the TGI was over 100 µM.

The molecule `O=C1C[C@H]2[C@@H](O1)[C@@H](O)CN1C(=O)c3ccccc3[C@H]21` showed a TGI of over 100 µM.

In turn, `CSc1nncc2[nH]c(C)nc12` displayed a TGI of over 100 µM.

`COc1ccc(OC)c(N2C(=O)CSC2c2cc(OC)c(OC)c(OC)c2)c1` (stereo not given) showed a TGI of over 100 µM.

Molecule `COc1ccc(C(OC(C)=O)C2C(=C(C#N)C#N)c3ccccc3C2=C(C#N)C#N)cc1` (stereo not given) gave a TGI of over 100 µM.

In turn, `CCOC(=O)C1=C(N)Oc2ccc(Br)cc2C1C(C#N)C(=O)OCC` (stereo not given) returned a TGI of 36.5 µM.

`CC(=O)Nc1ccc(-c2nc3ccccc3s2)cc1`: the TGI is over 100 µM.

Molecule `CCOP(=O)(O)C(C)(C)NC` yielded a TGI of over 100 µM.
